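Protocol summary: plate cells (96-well), add compound at 5 concentrations, incubate 48 h, interpolate endpoints linearly. At the GI50, growth is halved.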 Activity calls are given as the source filed them. Cut-off read from the data, not from the text of the source: active = GI50 up to about 1.1 µM and inactive = higher.

What all share (experiment): NCI tumour cell line growth inhibition, 48 h
Test [1] relates to CCRF-CEM.
Test [2] deals with HCT-15.
Test [3] has as its system M19-MEL.
Test [4] has as its system MOLT-4.
The test system of test [5] is Malme-3M.
Test [6] deals with NCI-H226.
Test [7] relates to NCI-H23.
Test [8] relates to NCI-H460.
Test [9] has as its system RXF 393.
Test [10] concerns SF-539.
In test [11] the test system is SK-MEL-2.
In test [12] the test system is SK-MEL-5.
Test [13] relates to UACC-62.
Test [14] has as its system HOP-62.

For the compound `CCOC(=O)c1c2ccc(/C=C/c3ccccn3)ccc-2c(C(=O)OCC)c1N`, the GI50 in test [1] was > 100 µM (inactive); in test [2], above 100 µM; in test [3], > 100 µM (inactive); in [4], > 100 µM (inactive); in [5] it was > 100 µM (inactive); in [6], > 100 µM (inactive). In addition, the GI50 in test [7] is > 100 µM (inactive); in test [8], 89.1 µM (inactive); in [9] it was > 100 µM (inactive); in test [10], 88.9 µM (inactive); in test [11], > 100 µM (inactive); in test [12], > 100 µM (inactive). The GI50 in test [13] is > 100 µM (inactive).
In the case of `CC[P+](C)(C)c1ccccc1`, the GI50 was > 100 µM (inactive) in test [1]; above 100 µM in [2]; > 100 µM (inactive) in test [14]; > 100 µM (inactive) in [3]; > 100 µM (inactive) in test [4]; > 100 µM (inactive) in test [5]. The GI50 in test [7], in [8], in test [9], in test [10], in [11] and in test [12] was > 100 µM (inactive) throughout. For the same compound, the GI50 in test [13] is > 100 µM (inactive).
On to `C=C(Br)N(CC)CC`, for which the GI50 in test [1] is > 100 µM (inactive); in test [2], above 100 µM; in [14] it was > 100 µM (inactive); in test [3], > 100 µM (inactive); in [4] it was > 100 µM (inactive); in test [5], > 100 µM (inactive). In addition, the GI50 in [6], in [7], in [8], in [9], in test [10] and in [11] was > 100 µM (inactive) each time. The GI50 in test [12] and in test [13] was > 100 µM (inactive) throughout.
In the case of `CCC12CCCN(Cc3ccccc3)C1c1c(n(C)c3ccccc13)CC2` (centres undefined), the GI50 in test [1] was 168 µM (inactive); in test [2], 185 µM; in test [14], > 253 µM (inactive); in [3], 170 µM (inactive); in [4] it was 101 µM (inactive); in test [5], > 253 µM (inactive). The GI50 in test [6] was > 253 µM (inactive); in test [7], 111 µM (inactive); in test [8], > 253 µM (inactive); in test [9] it was 97.3 µM (inactive); in [10], > 253 µM (inactive); in [11] it was > 253 µM (inactive). For the same compound, the GI50 in test [12] is 69.3 µM (inactive); in test [13], 230 µM (inactive).
Consider `CN(C)C(=S)N=C(Nc1ccccc1)Nc1ccccc1`, for which the GI50 in [1] was > 100 µM (inactive); in test [2] it was above 100 µM; in [14] it was > 100 µM (inactive); in [3] it was > 100 µM (inactive); in test [4], > 100 µM (inactive); in test [5] it was > 100 µM (inactive). Moreover, the GI50 in test [6], in test [7], in test [8], in test [9], in test [10] and in [11] was > 100 µM (inactive) each time. Also, the GI50 in test [12] and in test [13] was > 100 µM (inactive) in each case.
With `C/C(CC(=O)Nc1ccccc1[N+](=O)[O-])=N\NC(N)=O`, the GI50 in test [1], in [14], in test [3], in test [4], in [5] and in test [6] was > 100 µM (inactive) throughout. For the same compound, the GI50 in [7], in test [8], in test [9], in test [10], in test [11] and in [12] was > 100 µM (inactive) each time. The GI50 in test [13] is > 100 µM (inactive).
Regarding `CCOc1ccccc1NC(=O)C(=O)CC(=O)C1=C(C)Nc2ccccc2S1`, the GI50 is > 100 µM (inactive) in test [1]; above 100 µM in [2]; > 100 µM (inactive) in test [14]; > 100 µM (inactive) in test [3]; > 49.7 µM (inactive) in test [4]; > 100 µM (inactive) in test [5]. For the same compound, the GI50 in [6], in test [7], in [8], in test [9], in test [10] and in [11] was > 100 µM (inactive) each time. Moreover, the GI50 in [12] and in [13] was > 100 µM (inactive) throughout.
`CN1CCN=C1c1nnn(-c2ccc([N+](=O)[O-])cc2)c1-c1ccccc1`: the GI50 was 24.7 µM (inactive) in test [1]; above 100 µM in [2]; > 100 µM (inactive) in test [14]; > 100 µM (inactive) in test [3]; > 100 µM (inactive) in test [4]; > 100 µM (inactive) in test [5]. Besides, the GI50 in test [6], in [7], in test [8], in [9], in [10] and in [11] was > 100 µM (inactive) each time. Besides, the GI50 in test [12] and in test [13] was > 100 µM (inactive) each time.
Take `CC1=CC(=O)NCCN1C`: the GI50 was 75.2 µM (inactive) in [1]; above 100 µM in test [2]; > 100 µM (inactive) in [14]; > 100 µM (inactive) in test [3]; > 100 µM (inactive) in test [4]; > 100 µM (inactive) in [5]. In addition, the GI50 in [6], in test [7], in [8], in test [9], in test [10] and in test [11] was > 100 µM (inactive) in each case. The GI50 in test [12] and in test [13] was > 100 µM (inactive) in each case.
Turning to `c1ccc(NC[Si]23OCCN(CCO2)CCO3)cc1`, the GI50 in test [1], in test [3], in [4], in [5], in [6] and in test [7] was > 100 µM (inactive) each time. Further, the GI50 in [8], in test [9], in test [10], in [11], in test [12] and in [13] was > 100 µM (inactive) throughout.
With `CO[C@H](C(=O)O[C@H]1C(=O)N2CCC3CCC1C32C)c1ccccc1` (some centres undefined), the GI50 was > 100 µM (inactive) in test [1]; above 100 µM in [2]; > 100 µM (inactive) in test [14]; > 100 µM (inactive) in test [3]; > 100 µM (inactive) in [4]; > 100 µM (inactive) in test [5]. Besides, the GI50 in test [6], in test [7], in test [8], in test [9], in [10] and in test [11] was > 100 µM (inactive) in each case. Besides, the GI50 in test [12] and in [13] was > 100 µM (inactive) throughout.

Source of the values: ChEMBL document CHEMBL1201862, “PubChem BioAssay data set” (2004).
